Assay results from patent EP4752152A1, “STEROID COMPOUND, AND PREPARATION METHOD THEREFOR AND USE THEREOF” (Cholesgen (Shanghai) Co.Ltd., priority 2023, dated 2025).

system: SREBP pathway; assay: SREBP luciferase reporter gene system (SRE-luciferase assay); assay type: cell-based, human; details: Homo sapiens, Huh-7, 16 h, Huh-7/SRE-luc cells, sterol-deficient medium, 0.01-10 µM
Summary of the method: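 Readout was SRE-driven luciferase normalised to GFP fluorescence in lysates of stably transfected Huh-7/SRE-luc hepatoma cells. Compounds (0.01, 0.03, 0.1, 0.3, 1.0, 3.0, 10 µM; DMSO control) were applied for 16 h in sterol-depleted medium with 2 µM lovastatin and 10 µM mevalonate; IC50 from variable-slope fit.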

**Q.** With `COc1cc(F)nc(OC)c1C(O)CCC[C@@H](C)[C@H]1CC[C@H]2[C@H]3[C@H](CC[C@]12C)[C@@]1(C)CC[C@H](O)[C@H](O)[C@@H]1CC3(F)F` (stereo partly drawn) [Compound 214, (1R,3aS,3bS,5aR,6R,7S,9aR,9bS,11aR)-4,4-difluoro-1-[(2R)-6-(6-fluoro-2,4-dimethoxypyridin-3-yl)-6-hydroxyhexan-2-yl]-9a,11a-dimethylhexadecahydro-1H-cyclopenta[1,2-a]phenanthrene-6,7-diol] as the compound, how does the IC50 read?
**A.** 0.183 µM

**Q.** `C[C@H](CCCC(O)c1[nH]ncc1F)[C@H]1CC[C@H]2[C@H]3[C@H](CC[C@]12C)[C@@]1(C)CC[C@H](O)[C@H](O)[C@@H]1CC3(F)F` (stereo partly drawn) [Compound 237, (1R,3aS,3bS,5aR,6R,7S,9aR,9bS,11aR)-4,4-difluoro-1-[(2R)-6-(4-fluoro-2H-pyrazol-3-yl)-6-hydroxyhexan-2-yl]-9a,11a-dimethylhexadecahydro-1H-cyclopenta[1,2-a]phenanthrene-6,7-diol] was tested. Which IC50 did it give?
**A.** 0.726 µM

**Q.** Which IC50 does the source give for `C[C@H](CCC[C@@H](O)c1cccc2c1cnn2C)[C@H]1CC[C@H]2C3=C(F)C[C@H]4[C@@H](O)[C@@H](O)CC[C@]4(C)[C@H]3CC[C@]12C` [Compound 253, (1R,3aR,5aR,6R,7S,9aR,9bR,11aR)-4-fluoro-1-[(2R,6R)-6-hydroxy-6-(1-methylindazol-4-yl)hexan-2-yl]-9a,11a-dimethyl-2,3,3a,5,5a,6,7,8,9,9a,9b,10,11,11a-tetradecahydro-1H-cyclopenta[1,2-a]phenanthrene-6,7-diol] here?
**A.** 0.016 µM

**Q.** `C[C@H](CCCC(O)c1nc2c(s1)CCOC2)[C@H]1CC[C@H]2[C@H]3[C@H](CC[C@]12C)[C@@]1(C)CC[C@H](O)[C@H](O)[C@@H]1CC3(F)F` (stereo partly drawn) [Compound 257, (1R,3aS,3bS,5aR,6R,7 S,9aR,9bS,11aR)-1-[(2R)-6-(6,7-Dihydro-4H-pyrano[3,4-d][1,3]thiazol-2-yl)-6-hydroxyhexan-2-yl]-4,4-difluoro-9a,11a-dimethylhexadecahyd ro-1H-cyclopenta[1,2-a]phenanthrene-6,7-diol] was tested. Which IC50 did it give?
**A.** 0.154 µM

**Q.** `COc1c(C(O)CCC[C@@H](C)[C@H]2CC[C@H]3[C@H]4[C@H](CC[C@]23C)[C@@]2(C)CC[C@H](O)[C@H](O)[C@@H]2CC4(F)F)ccc[n+]1[O-]` (stereo partly drawn) [Compound 267, 3-[(5R)-5-[(1R,3aS,3bS,5aR,6R,7S,9aR,9bS,11aR)-4,4-difluoro-6,7-dihydroxy-9a,11a-dimethylhexadecahydro-1H-cyclopenta[1,2-a]phenanthren-1-yl]-1-hydroxyhexyl]-2-methoxypyridine-1-oxide] was tested. Which IC50 did it give?
**A.** 0.424 µM

**Q.** How did the IC50 turn out when `C[C@H](CCCC(O)c1cccc2cn[nH]c12)[C@H]1CC[C@H]2C3=C(F)C[C@H]4[C@@H](O)[C@@H](O)CC[C@]4(C)[C@H]3CC[C@]12C` (stereo partly drawn) [Compound 270, (1R,3aR,5aR,6R,7S,9aR,9bR,11aR)-4-fluoro-1-[(2R)-6-hydroxy-6-(1H-indazol-7-yl)hexan-2-yl]-9a,11a-dimethyl-2,3,3a,5,5a,6,7,8,9,9a,9b,10,11,11a-tetradecahydro-1H-cyclopenta[1,2-a]phenanthrene-6,7-diol] was run?
**A.** 0.259 µM

**Q.** `C[C@H](CCCC(O)c1cccc2nnn(C)c12)[C@H]1CC[C@H]2[C@H]3[C@H](CC[C@]12C)[C@@]1(C)CC[C@H](O)[C@H](O)[C@@H]1CC3(F)F` (stereo partly drawn) [Compound 271, (1R,3aS,3bS,5aR,6R,7 S,9aR,9bS,11aR)-4,4-Difluoro-1-[(2R)-6-hydroxy-6-(3-methylbenzo[d][1,2,3]triazol-4-yl)hexan-2-yl]-9a,11a-dimethylhexadecahyd ro-1H-cyclopenta[1,2-a]phenanthrene-6,7-diol] was tested. Which IC50 did it give?
**A.** 0.207 µM

**Q.** Which IC50 does the source give for `C[C@H](CCCC(O)c1cncc2c1cnn2C)[C@H]1CC[C@H]2[C@H]3[C@H](CC[C@]12C)[C@@]1(C)CC[C@H](O)[C@H](O)[C@@H]1CC3(F)F` (stereo partly drawn) [Compound 275, (1R,3aS,3bS,5aR,6R,7 S,9aR,9bS,11aR)-4,4-Difluoro-1-[(2R)-6-hydroxy-6-(1-methylpyrazolo[3,4-c]pyridin-4-yl)hexan-2-yl]-9a,11a-dimethylhexadecahyd ro-1H-cyclopenta[1,2-a]phenanthrene-6,7-diol] here?
**A.** 0.26 µM

**Q.** Which IC50 does the source give for `C[C@H](CCCC(O)c1ccc(F)nc1O)[C@H]1CC[C@H]2[C@H]3[C@H](CC[C@]12C)[C@@]1(C)CC[C@H](O)[C@H](O)[C@@H]1CC3(F)F` (stereo partly drawn) [Compound 276, (1R,3aS,3bS,5aR,6R,7S,9aR,9bS,11aR)-4,4-difluoro-1-[(2R)-6-(6-fluoro-2-hydroxypyridin-3-yl)-6-hydroxyhexan-2-yl]-9a,11a-dimethylhexadecahydro-1H-cyclopenta[1,2-a]phenanthrene-6,7-diol] here?
**A.** 0.925 µM

**Q.** For `C[C@H](CCCC(O)c1ccc(F)nc1OCc1ccccc1)[C@H]1CC[C@H]2[C@H]3[C@H](CC[C@]12C)[C@@]1(C)CC[C@H](O)[C@H](O)[C@@H]1CC3(F)F` (stereo partly drawn) [Compound 281, (1R,3aS,3bS,5aR,6R,7S,9aR,9bS,11aR)-1-[(2R)-6-[2-(benzyloxy)-6-fluoropyridin-3-yl]-6-hydroxyhexan-2-yl]-4,4-difluoro-9a,11a-dimethylhexadecahydro-1H-cyclopenta[1,2-a]phenanthrene-6,7-diol], which IC50 is on record?
**A.** 0.479 µM

**Q.** For `C[C@H](CCCC(O)c1cccc2nn[nH]c12)[C@H]1CC[C@H]2[C@H]3[C@H](CC[C@]12C)[C@@]1(C)CC[C@H](O)[C@H](O)[C@@H]1CC3(F)F` (stereo partly drawn) [Compound 282, (1R,3aS,3bS,5aR,6R,7 S,9aR,9bS,11aR)-4,4-Difluoro-1-[(2R)-6-hydroxy-6-(3H-benzo[d][1,2,3]triazol-4-yl)hexan-2-yl]-9a,11a-dimethylhexadecahydro-1H-cyclopenta[1,2-a]phenanthrene-6,7-diol], which IC50 is on record?
**A.** 0.389 µM

**Q.** Which IC50 does the source give for `C[C@H](CCCC(O)c1cnc2c(c1)OC(F)(F)O2)[C@H]1CC[C@H]2[C@H]3[C@H](CC[C@]12C)[C@@]1(C)CC[C@H](O)[C@H](O)[C@@H]1CC3(F)F` (stereo partly drawn) [Compound 284, (1R,3aS,3bS,5aR,6R,7 S,9aR,9bS,11aR)-1-[(2R)-6-(2,2-Difluoro[1,3]dioxolo[4,5-b]pyridin-6-yl)-6-hydroxyhexan-2-yl]-4,4-difluoro-9a,11a-dimethylhexadecahydro-1H-cyclopenta[1,2-a]phenanthrene-6,7-diol] here?
**A.** 0.309 µM

**Q.** Which IC50 does the source give for `C[C@H](CCC[C@H](O)c1nc2ccccc2n1C)[C@H]1CC[C@H]2[C@H]3[C@H](CC[C@]12C)[C@@]1(C)CC[C@H](O)[C@H](O)[C@@H]1CC3(F)F` [Compound 306, (1R,3aS,3bS,5aR,6R,7S,9aR,9bS,11aR)-4,4-difluoro-1-[(2R,6S)-6-hydroxy-6-(1-methylbenzo[d]imidazol-2-yl)hexan-2-yl]-9a,11a-dimethylhexadecahydro-1H-cyclopenta[1,2-a]phenanthrene-6,7-diol] here?
**A.** 0.121 µM

**Q.** `COc1nc(F)ccc1C(C)(O)CCC[C@@H](C)[C@H]1CC[C@H]2[C@H]3[C@H](CC[C@]12C)[C@@]1(C)CC[C@H](O)[C@H](O)[C@@H]1CC3(F)F` (stereo partly drawn) [Compound 308, (1R,3aS,3bS,5aR,6R,7S,9aR,9bS,11aR)-4,4-difluoro-1-[(2R)-6-(6-fluoro-2-methoxypyridin-3-yl)-6-hydroxyheptan-2-yl]-9a,11a-dimethylhexadecahydro-1H-cyclopenta[1,2-a]phenanthrene-6,7-diol] was tested. Which IC50 did it give?
**A.** 0.112 µM

**Q.** `COc1nc(F)ccc1[C@@](C)(O)CCC[C@@H](C)[C@H]1CC[C@H]2[C@H]3[C@H](CC[C@]12C)[C@@]1(C)CC[C@H](O)[C@H](O)[C@@H]1CC3(F)F` [Compound 309, (1R,3aS,3bS,5aR,6R,7S,9aR,9bS,11aR)-4,4-difluoro-1-[(2R,6S)-6-(6-fluoro-2-methoxypyridin-3-yl)-6-hydroxyheptan-2-yl]-9a,11a-dimethylhexadecahydro-1H-cyclopenta[1,2-a]phenanthrene-6,7-diol] was tested. Which IC50 did it give?
**A.** 0.143 µM

**Q.** For `COc1nc(F)ccc1[C@](C)(O)CCC[C@@H](C)[C@H]1CC[C@H]2[C@H]3[C@H](CC[C@]12C)[C@@]1(C)CC[C@H](O)[C@H](O)[C@@H]1CC3(F)F` [Compound 310, (1R,3aS,3bS,5aR,6R,7S,9aR,9bS,11aR)-4,4-difluoro-1-[(2R,6R)-6-(6-fluoro-2-methoxypyridin-3-yl)-6-hydroxyheptan-2-yl]-9a,11a-dimethylhexadecahydro-1H-cyclopenta[1,2-a]phenanthrene-6,7-diol], which IC50 is on record?
**A.** 0.209 µM

**Q.** Which IC50 does the source give for `COc1nc(F)ccc1[C@@H](O)CCC[C@@H](C)[C@H]1CC[C@H]2[C@H]3[C@H](CC[C@]12C)[C@@]1(C)CC[C@H](O)C[C@@H]1CC3(F)F` [Compound 312, (1R,3aS,3bR,5aR,7S,9aS,9bS,11aR)-4,4-difluoro-1-[(2R,6S)-6-(6-fluoro-2-methoxypyridin-3-yl)-6-hydroxyhexan-2-yl]-9a,11a-dimethylhexadecahydro-1H-cyclopenta[1,2-a]phenanthren-7-ol] here?
**A.** 0.276 µM

**Q.** Which IC50 does the source give for `C[C@H](CCC[C@H](O)c1cc2ccccc2o1)[C@H]1CC[C@H]2[C@H]3[C@H](CC[C@]12C)[C@@]1(C)CC[C@H](O)[C@H](O)[C@@H]1CC3(F)F` [Compound 316, (1R,3aS,3bS,5aR,6R,7S,9aR,9bS,11aR)-1-[(2R,6S)-6-(1-benzofuran-2-yl)-6-hydroxyhexan-2-yl]-4,4-difluoro-9a,11a-dimethylhexadecahydro-1H-cyclopenta[1,2-a]phenanthrene-6,7-diol] here?
**A.** 0.145 µM

**Q.** `C[C@H](CCC[C@H](O)c1nc2cnccc2n1C)[C@H]1CC[C@H]2[C@H]3[C@H](CC[C@]12C)[C@@]1(C)CC[C@H](O)[C@H](O)[C@@H]1CC3(F)F` [Compound 318, (1R,3aS,3bS,5aR,6R,7S,9aR,9bS,11aR)-4,4-difluoro-1-[(2R,6S)-6-hydroxy-6-(1-methylimidazo[5,4-c]pyridin-2-yl)hexan-2-yl]-9a,11a-dimethylhexadecahydro-1H-cyclopenta[1,2-a]phenanthrene-6,7-diol] was tested. Which IC50 did it give?
**A.** 0.296 µM

**Q.** How did the IC50 turn out when `C[C@H](CCC[C@H](O)c1n[nH]c2ccccc12)[C@H]1CC[C@H]2[C@H]3[C@H](CC[C@]12C)[C@@]1(C)CC[C@H](O)[C@H](O)[C@@H]1CC3(F)F` [Compound 319, (1R,3aS,3bS,5aR,6R,7S,9aR,9bS,11aR)-4,4-difluoro-1-[(2R,6S)-6-hydroxy-6-(1H-indazol-3-yl)hexan-2-yl]-9a,11a-dimethylhexadecahydro-1H-cyclopenta[1,2-a]phenanthrene-6,7-diol] was run?
**A.** 0.104 µM
